In patent publication US9085562B2, “6-alkyl-N-(pyridin-2-yl)-4-aryloxypicolinamide analogs as mGluR5 negative allosteric modulators and methods of making and using the same” (Vanderbilt University, priority 2011, dated 2015):

System: elevated plus maze
Assay: Elevated plus maze
Format: in vivo
Conditions: 10 mg/kg
Description: Test compounds (1) and (2) were administrated at the 10 mg/kg and 30 mg/kg doses described in this figure. […] Prospective In Vivo Effects

Row | Compound | total distance traveled
1 | Cc1cc(Oc2cncc(F)c2)cc(C(=O)Nc2ccc(F)cn2)n1 [Compound (1), N-(5-fluoropyridin-2-yl)-4-((5-fluoropyridin-3-yl)oxy)-6-methylpicolinamide] | statistically significant beneficial effect

Same assay, conditions: 30 mg/kg

Row | Compound | total distance traveled
2 | Cc1cc(Oc2cncc(F)c2)cc(C(=O)Nc2ccc(F)cn2)n1 [Compound (1), N-(5-fluoropyridin-2-yl)-4-((5-fluoropyridin-3-yl)oxy)-6-methylpicolinamide] | statistically significant beneficial effect

System: not listed separately
Assay: Rat IV/PO pharmacokinetics
Conditions: in vivo; Rat IV/PO
Description: Additional physicochemical and pharmacological data are provided below in Tables 2-4 for Test Compounds 1 and 2 (Compounds […] and (2) as described herein).

Row | Compound | bioavailability | clearance | half-life
3 | Cc1cc(Oc2cncnc2)cc(C(=O)Nc2ccc(F)cn2)n1 [drawing 265] | 30 to 76% | 19.2 mL/min/kg | 0.47 h
4 | Cc1cc(Oc2cncc(F)c2)cc(C(=O)Nc2ccc(F)cn2)n1 [drawing 266] | 67 to 75% | 9.15 mL/min/kg | 4.7 h

Same assay, conditions: in vivo; Rat IV/PO; read-out: Vss

Row | Compound | Vd
5 | Cc1cc(Oc2cncnc2)cc(C(=O)Nc2ccc(F)cn2)n1 [drawing 265] | 1.78 L/kg
6 | Cc1cc(Oc2cncc(F)c2)cc(C(=O)Nc2ccc(F)cn2)n1 [drawing 266] | 1.89 L/kg

Same assay, conditions: in vivo; Rat PO

Row | Compound | Cmax | Tmax
7 | Cc1cc(Oc2cncnc2)cc(C(=O)Nc2ccc(F)cn2)n1 [drawing 265] | 2170 nM | 0.5 h
8 | Cc1cc(Oc2cncc(F)c2)cc(C(=O)Nc2ccc(F)cn2)n1 [drawing 266] | 3330 nM | 1.5 h

System: not listed separately
Assay: Cynomolgus monkey IV/PO pharmacokinetics
Conditions: in vivo; Cynomolgus monkey IV/PO

Row | Compound | bioavailability | clearance | half-life
9 | Cc1cc(Oc2cncnc2)cc(C(=O)Nc2ccc(F)cn2)n1 [drawing 267] | 42 to 45% | 15.4 mL/min/kg | 6.04 h
10 | Cc1cc(Oc2cncc(F)c2)cc(C(=O)Nc2ccc(F)cn2)n1 [drawing 268] | 25 to 45% | 13.2 mL/min/kg | 9.38 h

Same assay, conditions: in vivo; Cynomolgus monkey IV/PO; read-out: Vss

Row | Compound | Vd
11 | Cc1cc(Oc2cncnc2)cc(C(=O)Nc2ccc(F)cn2)n1 [drawing 267] | 2.5 L/kg

Same assay, conditions: in vivo; Cynomolgus monkey PO

Row | Compound | Cmax | Tmax
12 | Cc1cc(Oc2cncnc2)cc(C(=O)Nc2ccc(F)cn2)n1 [drawing 267] | 858 nM | 3 h
13 | Cc1cc(Oc2cncc(F)c2)cc(C(=O)Nc2ccc(F)cn2)n1 [drawing 268] | 1360 nM | 2 h

Target: T1, rat mGluR5 (Rattus norvegicus, UniProt P31424)
T1 construct: expressed in transfected cells
T1 sequence (P31424 21-1171 isoform P31424-2 limits assumed): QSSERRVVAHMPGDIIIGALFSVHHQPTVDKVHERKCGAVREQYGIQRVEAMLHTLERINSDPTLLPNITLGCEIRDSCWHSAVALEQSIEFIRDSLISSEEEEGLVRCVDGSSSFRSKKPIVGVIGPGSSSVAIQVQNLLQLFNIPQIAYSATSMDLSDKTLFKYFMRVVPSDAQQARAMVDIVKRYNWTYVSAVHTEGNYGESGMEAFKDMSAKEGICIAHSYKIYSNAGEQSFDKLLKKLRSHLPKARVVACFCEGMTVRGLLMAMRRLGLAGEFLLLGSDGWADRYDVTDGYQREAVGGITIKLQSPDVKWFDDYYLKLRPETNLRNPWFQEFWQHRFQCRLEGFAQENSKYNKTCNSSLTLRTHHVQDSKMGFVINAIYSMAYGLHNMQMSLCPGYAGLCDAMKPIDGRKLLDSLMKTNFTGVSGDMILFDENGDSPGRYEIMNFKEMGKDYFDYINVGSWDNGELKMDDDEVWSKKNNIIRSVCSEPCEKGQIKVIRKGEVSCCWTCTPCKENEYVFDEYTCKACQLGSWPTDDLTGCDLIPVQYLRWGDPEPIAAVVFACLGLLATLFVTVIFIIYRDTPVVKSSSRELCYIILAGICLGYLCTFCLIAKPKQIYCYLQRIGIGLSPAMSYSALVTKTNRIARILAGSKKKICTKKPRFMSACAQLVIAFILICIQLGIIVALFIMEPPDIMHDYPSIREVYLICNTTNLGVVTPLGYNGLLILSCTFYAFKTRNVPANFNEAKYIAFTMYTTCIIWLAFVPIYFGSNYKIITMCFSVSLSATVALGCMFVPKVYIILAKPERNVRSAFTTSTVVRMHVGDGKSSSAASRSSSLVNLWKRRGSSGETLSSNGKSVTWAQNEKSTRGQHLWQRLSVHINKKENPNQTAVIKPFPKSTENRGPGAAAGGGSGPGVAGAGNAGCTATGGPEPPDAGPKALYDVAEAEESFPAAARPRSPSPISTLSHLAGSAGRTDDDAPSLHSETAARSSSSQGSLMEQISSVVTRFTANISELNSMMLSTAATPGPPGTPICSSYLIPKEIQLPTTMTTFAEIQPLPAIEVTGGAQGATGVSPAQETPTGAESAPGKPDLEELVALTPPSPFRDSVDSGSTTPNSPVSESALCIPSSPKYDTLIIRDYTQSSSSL
Assay: mGluR5 calcium mobilization assay (HEK 293A cells, FDSS)
Format: cell-based
Conditions: HEK cells transfected with rat mGluR5; antagonism of glutamate EC80 response; Table 1
Description: Human embryonic kidney (HEK) cells transfected with rat or human mGluR5 were plated in clear bottom assay plates for assay in a Functional Drug Screening System (FDSS). The cells were loaded with a Ca2+-sensitive fluorescent dye (e.g., Fluo-4), and the plates were washed and placed in the FDSS instrument. Test compound was applied to cells 3 seconds after baseline readings were taken. Cells were incubated with the test compounds for 140 seconds and then stimulated with an EC20 concentration of an mGluR5 agonist (e.g., glutamate, 3,5-dihydroxyphenylglycine, or quisqualate); 60-80 seconds later an EC80 concentration of agonist was added and readings taken for an additional 40 seconds. Data were collected at 1 Hz. […] Concentration response curves were generated using a four parameter logistical equation.
The above described assay was operated in two modes. In the first mode (utilizing a triple add protocol), a range of concentrations of the present compounds were added to cells, followed by two single fixed concentrations of agonist (EC20 followed by EC80). If a compound acted as a potentiator, an EC50 value for potentiation of the EC20 response and a maximum extent of potentiation by the compound at this concentration of agonist was determined by non-linear curve fitting. If a compound acted as an antagonist, an IC50 value for antagonism of the EC80 response and a maximum extent of antagonism by the compound at this concentration of agonist was determined by non-linear curve fitting. In the second mode (utilizing a double add protocol), several fixed concentrations of the present compounds were added to various wells on a plate, followed by a range of concentrations of agonist for each concentration of present compound; the EC50 values for the agonist at each concentration of compound were determined by nonlinear curve fitting. A decrease in the EC50 value of the agonist with increasing concentrations of the present compounds (a leftward shift of the agonist concentration-response curve) is an indication of the degree of mGluR5 positive allosteric modulation at a given concentration of the present compound. An increase in the EC50 value of the agonist with increasing concentrations of the present compounds (a rightward shift of the agonist concentration response curve) is an indication of the degree of mGluR5 antagonism at a given concentration of the present compound. The second mode also indicates whether the present compounds also affect the maximum response to mGluR5 to agonists.
The mGluR5 activity was determined using the metabotropic glutamate receptor activity assays in human embryonic kidney cells as described herein, wherein the human embryonic kidney cells were transfected with rat mGluR5. The mGluR5 activity data for some compounds are shown as the average of at least three experiments with the standard error in these cases. If no error is indicated for the mGluR5 activity, the values given represent the results from a single experiment or the average of two experiments. The compounds in Table 1 were synthesized with methods identical or analogous to those shown herein. The requisite starting materials were commercially available, described in the literature, or readily synthesized by one skilled in the art of organic synthesis.
The cells were grown overnight at 37° C. in the presence of 5% CO2. […] Dye was removed, 20 μL of assay buffer was added, and the plate was incubated for 10 minutes at room temperature.
Ca^2+ flux was measured using the Functional Drug Screening System (FDSS6000, Hamamatsu, Japan). After establishment of a fluorescence baseline for about 3 seconds, the compounds of the present invention were added to the cells, and the response in cells was measured.

Row | Compound | IC50
14 | Cc1cc(Oc2cnc(C)nc2)cc(C(=O)Nc2cc(F)ccn2)n1 | 1890 nM
15 | Cc1cc(Oc2cnc(C)nc2)cc(C(=O)Nc2ccc(Cl)cn2)n1 | 209 nM
16 | Cc1cc(Oc2ccc(C(F)(F)F)nc2)cc(C(=O)Nc2ccc(F)cn2)n1 | 255 nM
17 | Cc1cc(Oc2ccc(C(F)(F)F)nc2)cc(C(=O)Nc2cc(F)ccn2)n1 | 4880 nM
18 | Cc1cccc(NC(=O)c2cc(Oc3ccc(C(F)(F)F)nc3)cc(C)n2)n1 | 177 nM
19 | Cc1cc(Oc2ccc(C(F)(F)F)nc2)cc(C(=O)Nc2cccc(F)n2)n1 | 397 nM
20 | Cc1cc(Oc2ccc(C(F)(F)F)nc2)cc(C(=O)Nc2ccc(Cl)cn2)n1 | > 30000 nM
21 | Cc1ccc(Oc2cc(C)nc(C(=O)Nc3cc(F)ccn3)c2)cn1 | 1800 nM
22 | Cc1ccc(NC(=O)c2cc(Oc3ccc(C)nc3)cc(C)n2)nc1 | 966 nM
23 | Cc1ccc(Oc2cc(C)nc(C(=O)Nc3ccc(Cl)cn3)c2)cn1 | 635 nM
24 | Cc1cc(Oc2cccnc2)cc(C(=O)Nc2cc(C#N)ccn2)n1 | > 10000 nM
25 | Cc1ccc(Oc2cc(C)nc(C(=O)Nc3cc(C#N)ccn3)c2)cn1 | 387 nM
26 | Cc1ccc(Oc2cc(C)nc(C(=O)Nc3ccc(F)c(C)n3)c2)cn1 | 328 nM
27 | Cc1cc(Oc2cncc(Cl)c2)cc(C(=O)Nc2cc(C#N)ccn2)n1 | 548 nM
28 | Cc1cc(Oc2cccnc2)cc(C(=O)Nc2ccc(C(F)(F)F)cn2)n1 | 1110 nM
29 | Cc1ccc(Oc2cc(C)nc(C(=O)Nc3ccc(C#N)cn3)c2)cn1 | 693 nM
30 | Cc1ccc(Oc2cc(C)nc(C(=O)Nc3ccc(C(F)(F)F)cn3)c2)cn1 | > 30000 nM
31 | Cc1cc(Oc2cncc(Cl)c2)cc(C(=O)Nc2ccc(C(F)(F)F)cn2)n1 | > 10000 nM
32 | CCc1cccc(NC(=O)c2cc(Oc3cncc(F)c3)cc(CC)n2)n1 | 468 nM
33 | CCc1cc(Oc2cncc(F)c2)cc(C(=O)Nc2cc(F)ccn2)n1 | 333 nM
34 | CCc1cc(Oc2cncc(F)c2)cc(C(=O)Nc2ccc(Cl)cn2)n1 | 333 nM
35 | CCc1cc(Oc2cncnc2)cc(C(=O)Nc2cc(C)c(F)cn2)n1 | 677 nM
36 | CCc1cc(Oc2cncc(F)c2)cc(C(=O)Nc2cc(C)c(F)cn2)n1 | > 30000 nM
37 | CCc1cc(Oc2cncnc2)cc(C(=O)Nc2ccc(C(F)(F)F)cn2)n1 | > 30000 nM
38 | CCc1cc(Oc2cncc(F)c2)cc(C(=O)Nc2ccc(C(F)(F)F)cn2)n1 | > 30000 nM

Other lines, results leading:

Row | IC50 | Compound
39 | 172 nM | Cc1ccc(Oc2cc(C)nc(C(=O)Nc3cccc(Cl)n3)c2)cn1
40 | 159 nM | CCc1cc(Oc2cncc(F)c2)cc(C(=O)Nc2ccc(F)c(C)n2)n1
41 | 156 nM | CCc1cc(Oc2cncnc2)cc(C(=O)Nc2ccc(C#N)cn2)n1
42 | 152 nM | CCc1cccc(NC(=O)c2cc(Oc3ccc(C)nc3)cc(C)n2)n1
43 | 108 nM | CCc1cc(Oc2cncc(F)c2)cc(C(=O)Nc2ccc(C#N)cn2)n1
44 | 72 nM | Cc1ccc(NC(=O)c2cc(Oc3cncnc3)cc(C(F)F)n2)nc1
45 | 64 nM | Cc1ccc(Oc2cc(C)nc(C(=O)Nc3cccc(F)n3)c2)cn1
46 | 59 nM | CCc1cc(Oc2cncc(F)c2)cc(C(=O)Nc2cccc(Cl)n2)n1
47 | 41 nM | CCc1cc(Oc2cncc(F)c2)cc(C(=O)Nc2ccc(C)cn2)n1
48 | 27 nM | CCc1cc(Oc2cncnc2)cc(C(=O)Nc2ccc(F)c(C)n2)n1
49 | 27 nM | CCc1cc(Oc2cncnc2)cc(C(=O)Nc2ccc(C)cn2)n1
50 | 26 nM | Cc1cc(Oc2cccnc2)cc(C(=O)Nc2cc(F)ccn2)n1
51 | 25 nM | CCc1cc(Oc2cncnc2)cc(C(=O)Nc2ccc(Cl)cn2)n1
52 | 24 nM | CCc1cc(Oc2cncnc2)cc(C(=O)Nc2cccc(F)n2)n1
53 | 21 nM | Cc1cc(Oc2cnc(C)nc2)cc(C(=O)Nc2cccc(F)n2)n1
54 | 20 nM | Cc1cccc(NC(=O)c2cc(Oc3cnc(C)nc3)cc(C)n2)n1
55 | 19 nM | CCc1cccc(NC(=O)c2cc(Oc3cncnc3)cc(CC)n2)n1
56 | 18 nM | Cc1cc(Oc2cncc(Cl)c2)cc(C(=O)Nc2ccc(Cl)cn2)n1
57 | 18 nM | CCc1cc(Oc2cncc(F)c2)cc(C(=O)Nc2cccc(F)n2)n1
58 | 15 nM | Cc1cc(Oc2cncc(C#N)c2)cc(C(=O)Nc2cc(F)ccn2)n1
59 | 14 nM | Cc1cc(Oc2cccnc2)cc(C(=O)Nc2ccc(C#N)cn2)n1
60 | 14 nM | Cc1cc(Oc2cncc(Cl)c2)cc(C(=O)Nc2cccc(Cl)n2)n1

Row | IC50 | Compound
61 | 14 nM | Cc1cc(Oc2cncc(Cl)c2)cc(C(=O)Nc2ccc(F)c(C)n2)n1
62 | 14 nM | CCc1cccc(NC(=O)c2cc(Oc3cncc(Cl)c3)cc(C)n2)n1
63 | 14 nM | CCc1cc(Oc2cncnc2)cc(C(=O)Nc2cccc(Cl)n2)n1
64 | 13 nM | CCc1cccc(NC(=O)c2cc(Oc3cccnc3)cc(C)n2)n1
65 | 13 nM | Cc1ccc(Oc2cc(C)nc(C(=O)Nc3cccc(C)n3)c2)cn1
66 | 13 nM | CCc1cc(Oc2cncc(F)c2)cc(C(=O)Nc2cccc(C)n2)n1
67 | 11 nM | Cc1cc(Oc2cncc(Cl)c2)cc(C(=O)Nc2ccc(C#N)cn2)n1
68 | 11 nM | CCc1cc(Oc2cncc(F)c2)cc(C(=O)Nc2ccc(F)cn2)n1
69 | 10 nM | Cc1ccc(NC(=O)c2cc(Oc3cccnc3)cc(C)n2)nc1
70 | 9.3 nM | CCc1cc(Oc2cncnc2)cc(C(=O)Nc2ccc(F)cn2)n1
71 | 8.2 nM | Cc1cc(Oc2cncc(F)c2)cc(C(=O)Nc2cccc(Cl)n2)n1
72 | 6.8 nM | Cc1ccc(NC(=O)c2cc(Oc3cncc(F)c3)cc(C)n2)nc1
73 | 6.7 nM | Cc1cccc(NC(=O)c2cc(Oc3cncc(Cl)c3)cc(C)n2)n1
74 | 6.4 nM | Cc1ccc(NC(=O)c2cc(Oc3cncc(Cl)c3)cc(C)n2)nc1
75 | 6.1 nM | CCc1cc(Oc2cncnc2)cc(C(=O)Nc2cccc(C)n2)n1
76 | 5.5 nM | Cc1cc(Oc2cccnc2)cc(C(=O)Nc2ccc(Cl)cn2)n1
77 | 5.4 nM | Cc1cc(Oc2cncc(C#N)c2)cc(C(=O)Nc2ccc(F)cn2)n1
78 | 5.3 nM | Cc1cc(Oc2cncc(Cl)c2)cc(C(=O)Nc2cccc(F)n2)n1
79 | 4.4 nM | Cc1cccc(NC(=O)c2cc(Oc3cccnc3)cc(C)n2)n1
80 | 4.1 nM | Cc1cc(Oc2cccnc2)cc(C(=O)Nc2ccc(F)cn2)n1
81 | 3.4 nM | Cc1cc(Oc2cccnc2)cc(C(=O)Nc2cccc(F)n2)n1
82 | 2.2 nM | Cc1cc(Oc2cncc(Cl)c2)cc(C(=O)Nc2ccccn2)n1
